Assay results from ChEMBL document CHEMBL3608278 (J Med Chem, 2015).

Experiments:
[1] = target: T1, Potassium voltage-gated channel subfamily A member 3 (Homo sapiens, UniProt P22001); parameters: species or system Blood
[2] = target: T1, Potassium voltage-gated channel subfamily A member 3; experiment: cell-based; parameters: species or system Blood
[3] = target: T1, Potassium voltage-gated channel subfamily A member 3; format: cell-based, CHO-K1

T1 sequence (P22001 whole entry): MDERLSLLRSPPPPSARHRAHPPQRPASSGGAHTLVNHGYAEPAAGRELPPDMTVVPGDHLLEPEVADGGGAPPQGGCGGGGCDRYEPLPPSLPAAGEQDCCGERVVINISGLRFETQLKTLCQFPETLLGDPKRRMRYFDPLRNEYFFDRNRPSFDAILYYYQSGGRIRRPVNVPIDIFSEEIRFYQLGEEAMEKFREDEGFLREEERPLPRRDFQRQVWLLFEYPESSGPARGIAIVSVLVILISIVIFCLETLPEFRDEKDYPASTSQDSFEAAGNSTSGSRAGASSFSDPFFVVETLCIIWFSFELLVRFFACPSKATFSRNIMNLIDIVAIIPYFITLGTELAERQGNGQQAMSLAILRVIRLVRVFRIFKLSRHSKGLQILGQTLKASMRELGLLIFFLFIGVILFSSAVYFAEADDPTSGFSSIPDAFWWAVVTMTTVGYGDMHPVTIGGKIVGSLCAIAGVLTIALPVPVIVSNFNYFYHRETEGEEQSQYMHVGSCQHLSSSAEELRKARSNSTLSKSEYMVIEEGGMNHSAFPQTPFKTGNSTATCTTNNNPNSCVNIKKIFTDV

Structure (SMILES)	IC50 [1]	IC50 [2]	IC50 [3]
CC[C@H](C)[C@@H]1NC(=O)[C@@H](NC(=O)[C@H](CO)NC(=O)[C@@H](N)CCCNC(=N)N)CSSC[C@@H](C(=O)O)NC(=O)[C@H]([C@@H](C)O)NC(=O)CNC(=O)[C@@H]2CSSC[C@@H]3NC(=O)[C@H](CCC(N)=O)NC(=O)[C@H](Cc4ccccc4)NC(=O)[C@H](C)NC(=O)[C@H]([C@@H](C)O)NC(=O)[C@H](CSSC[C@H](NC(=O)[C@H](Cc4cccc5ccccc45)NC(=O)[C@H](CO)NC(=O)[C@H](CC(C)C)NC(=O)[C@H](CCCNC(=N)N)NC(=O)[C@H](Cc4ccc(O)cc4)NC(=O)[C@H](CCCCN)NC(=O)[C@H](CCSC)NC(=O)[C@H](CO)NC(=O)[C@H](Cc4cnc[nH]4)NC(=O)[C@H](CCCCN)NC3=O)C(=O)N[C@@H](CCCNC(=N)N)C(=O)N[C@@H](CCCCN)C(=O)N[C@@H]([C@@H](C)O)C(=O)N2)NC(=O)[C@H](CCCNC(=N)N)NC(=O)[C@H](CO)NC(=O)[C@H](CCCCN)NC(=O)[C@@H]2CCCN2C(=O)[C@H]([C@@H](C)CC)NC(=O)[C@H]([C@@H](C)O)NC(=O)[C@H](CC(=O)O)NC1=O	2.84 nM	1.07 nM	0.223 nM
CC[C@H](C)[C@@H]1NC(=O)[C@@H](NC(=O)[C@H](CO)NC(=O)[C@@H](N)CCCNC(=N)N)CSSC[C@@H](C(=O)O)NC(=O)[C@H]([C@@H](C)O)NC(=O)CNC(=O)[C@@H]2CSSC[C@@H]3NC(=O)[C@H](CCC(N)=O)NC(=O)[C@H](Cc4ccccc4)NC(=O)[C@H](C)NC(=O)[C@H]([C@@H](C)O)NC(=O)[C@H](CSSC[C@H](NC(=O)[C@H](Cc4ccccc4)NC(=O)[C@H](CO)NC(=O)[C@H](CC(C)C)NC(=O)[C@H](CCCNC(=N)N)NC(=O)[C@H](Cc4ccc(O)cc4)NC(=O)[C@H](CCCCN)NC(=O)[C@H](CCSC)NC(=O)[C@H](CO)NC(=O)[C@H](Cc4cnc[nH]4)NC(=O)[C@H](CCCCN)NC3=O)C(=O)N[C@@H](Cc3cccc4ccccc34)C(=O)N[C@@H](CCCCN)C(=O)N[C@@H]([C@@H](C)O)C(=O)N2)NC(=O)[C@H](CCCNC(=N)N)NC(=O)[C@H](CO)NC(=O)[C@H](CCCCN)NC(=O)[C@@H]2CCCN2C(=O)[C@H]([C@@H](C)CC)NC(=O)[C@H]([C@@H](C)O)NC(=O)[C@H](CC(=O)O)NC1=O	8.08 nM	4.72 nM	> 3.33 nM
CC[C@H](C)[C@@H]1NC(=O)[C@@H](NC(=O)[C@H](CO)NC(=O)[C@@H](N)CCC(=O)O)CSSC[C@@H](C(=O)O)NC(=O)[C@H]([C@@H](C)O)NC(=O)CNC(=O)[C@@H]2CSSC[C@@H]3NC(=O)[C@H](CCC(N)=O)NC(=O)[C@H](Cc4ccccc4)NC(=O)[C@H](C)NC(=O)[C@H]([C@@H](C)O)NC(=O)[C@H](CSSC[C@H](NC(=O)[C@H](Cc4ccccc4)NC(=O)[C@H](CO)NC(=O)[C@H](CC(C)C)NC(=O)[C@H](CCCNC(=N)N)NC(=O)[C@H](Cc4ccc(O)cc4)NC(=O)[C@H](CCCCN)NC(=O)[C@H](CCSC)NC(=O)[C@H](CO)NC(=O)[C@H](Cc4cnc[nH]4)NC(=O)[C@H](CCCCN)NC3=O)C(=O)N[C@@H](CCCNC(=N)N)C(=O)N[C@@H](CCCCN)C(=O)N[C@@H]([C@@H](C)O)C(=O)N2)NC(=O)[C@H](CCCNC(=N)N)NC(=O)[C@H](CO)NC(=O)[C@H](CCCCN)NC(=O)[C@@H]2CCCN2C(=O)[C@H]([C@@H](C)CC)NC(=O)[C@H]([C@@H](C)O)NC(=O)[C@H](CC(=O)O)NC1=O	0.249 nM	0.214 nM	0.151 nM
